Legend:
[1] = biological target: pro-protein convertase of the subtype nine binding to recombinant LDLR-AB domain (Homo sapiens, UniProt Q8NBP7); experiment: in vitro quantitative solid phase binding assay (ELISA) of the subtype nine pro-protein convertase to immobilized LDLR
Procedure: The in vitro binding assay described hereinafter is a quantitative solid phase binding assay for determining the efficacy of the compounds. Plates were pre-coated with a recombinant LDLR-AB domain, which binds to the gene pro-protein convertase of the subtype nine. Test compound at different concentrations was added to the subtype gene and added to LDLR immobilized on the wells. The amount of bound gene is measured by binding it with biotinylated anti-His-tag monoclonal antibody, followed by binding with horseradish peroxidase conjugated streptavidin substrate. The color was quantified by ELISA reader at […] which reflects the relative amount of “the gene” that binds to LDLR in presence and absence of the inhibitor. EC50 values were calculated by nonlinear regression analysis using graph pad prism software. Each concentration point represents values in duplicates.

High Fat Diet C57 Mice = experiment: LDL-C lowering activity in high fat diet C57 mice; assay type: in vivo; conditions: C57 mice on high fat diet, dose 30 mg, orally once a day, day 28 of treatment
Procedure: The in-vivo LDL-c lowering for test compound was tested in C57 mice which were kept on high fat diet for 4 weeks and the blood was collected by retro-orbital sinus puncture method under light ether anesthesia on day 0 (pretreatment). Animal are grouped based on LDL-C levels, after that 4-6 week treatment with vehicle or test compound orally at a dose of 30 mpk dose once a day was given. On completion of treatment on day 28 of the treatment the blood was collected for LDL-C levels measurement. The percent change in LDL-C in test compound group Vs Vehicle group was calculated.

pro-protein convertase of the subtype nine binding to recombinant LDLR-AB domain, sequence (Q8NBP7 153-692): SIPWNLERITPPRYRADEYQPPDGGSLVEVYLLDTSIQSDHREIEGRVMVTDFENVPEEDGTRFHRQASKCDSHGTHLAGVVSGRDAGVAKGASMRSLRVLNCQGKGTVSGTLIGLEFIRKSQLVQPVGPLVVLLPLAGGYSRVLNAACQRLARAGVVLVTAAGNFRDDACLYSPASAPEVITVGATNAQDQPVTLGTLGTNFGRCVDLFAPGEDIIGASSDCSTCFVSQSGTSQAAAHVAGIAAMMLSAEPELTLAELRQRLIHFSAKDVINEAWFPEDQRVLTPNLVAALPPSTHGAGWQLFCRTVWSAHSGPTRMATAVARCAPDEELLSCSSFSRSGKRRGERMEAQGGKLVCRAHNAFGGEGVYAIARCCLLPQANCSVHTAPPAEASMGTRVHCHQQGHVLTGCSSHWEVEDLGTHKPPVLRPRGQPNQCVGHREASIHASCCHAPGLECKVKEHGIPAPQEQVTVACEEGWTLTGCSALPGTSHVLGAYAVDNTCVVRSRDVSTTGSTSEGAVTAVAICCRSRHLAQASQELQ
pro-protein convertase of the subtype nine binding to recombinant LDLR-AB domain, sequence (Q8NBP7 31-152 partner limits assumed): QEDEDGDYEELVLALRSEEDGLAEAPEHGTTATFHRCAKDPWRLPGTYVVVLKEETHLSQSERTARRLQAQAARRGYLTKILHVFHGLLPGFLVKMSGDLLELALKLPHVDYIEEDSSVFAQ

SMILES | inhibition at 1 µM ([1]; Concentration 1 μM) [%] | inhibition at 10 µM ([1]; Concentration 10 μM) [%] | inhibition at 100 µM ([1]; Concentration 100 μM) [%] | further results
CCC(=NOCc1ccc(C(F)(F)F)cc1)c1ccc(OCC(=O)NCC2CCOCC2)cc1 [Example 1, N-((tetrahydro-2H-pyran-4-yl)methyl)-2-(4-(1-(((4-(trifluoromethyl)benzyl)oxy)imino)propyl)phenoxy)acetamide] | 29 | 35 | 57 | % Change Vs Vehicle Control LDL-C (High Fat Diet C57 Mice): −48.8 ± 4.2%; % Change Vs Vehicle Control TC (High Fat Diet C57 Mice): −11.8 ± 2.7%
CC(=NOCc1ccc(C(F)(F)F)cc1)c1ccc(OCC(=O)NCC2CCOCC2)nc1 [Example 3, N-((tetrahydro-2H-pyran-4-yl)methyl)-2-((5-(1-(((4-(trifluoromethyl)benzyl)oxy)imino)ethyl)pyridin-2-yl)oxy)acetamide] | 28 | 41 | 54 | % Change Vs Vehicle Control LDL-C (High Fat Diet C57 Mice): −74.6 ± 2.0%; % Change Vs Vehicle Control TC (High Fat Diet C57 Mice): −33.6 ± 2.0%
O=C(COc1ccc(C=NOCc2ccc(C(F)(F)F)cc2)cn1)NCC1CCOCC1 [Example 19, N-((tetrahydro-2H-pyran-4-yl)methyl)-2-((5-((((4-(trifluoromethyl)benzyl)oxy)imino)methyl)pyridin-2-yl)oxy)acetamide] |  | 40 | 46 | 
CC(=NOCc1ccc(C(F)(F)F)cc1)c1ccc(NCC(=O)NCC2CCOCC2)cc1 [Example 20, N-((tetrahydro-2H-pyran-4-yl)methyl)-2-((4-(1-(((4-(trifluoromethyl)benzyl)oxy)imino)ethyl)phenyl)amino)acetamide] | 20 | 34 | 57 | 
CC(=NOCc1ccc(C#N)cc1)c1ccc(OCC(=O)NCC2CCOCC2)nc1 [Example 21, 2-((5-(1-(((4-cyanobenzyl)oxy)imino)ethyl)pyridin-2-yl)oxy)-N-((tetrahydro-2H-pyran-4-yl)methyl)acetamide] |  |  | 15 | 
CCC(=NOCc1ccc(C(F)(F)F)cc1)c1ccc(NCC(=O)NCC2CCOCC2)nc1 [Example 23, N-((tetrahydro-2H-pyran-4-yl)methyl)-2-((5-(1-(((4-(trifluoromethyl)benzyl)oxy)imino)propyl)pyridin-2-yl)amino)acetamide] | 30 | 42 | 47 | 
CCC(=NOCc1ccccc1)c1ccc(OCC(=O)NCC2CCOCC2)nc1 [Example 24, 2-((5-(1-((benzyloxy)imino)propyl)pyridin-2-yl)oxy)-N-((tetrahydro-2H-pyran-4-yl)methyl)acetamide] | 24 | 28 | 52 | 
CCC(=NOCc1ccc(C)cc1)c1ccc(OCC(=O)NCC2CCOCC2)nc1 [Example 25, 2-((5-(1-(((4-methylbenzyl)oxy)imino)propyl)pyridin-2-yl)oxy)-N-((tetrahydro-2H-pyran-4-yl)methyl)acetamide] | 28 | 34 | 50 | 
CCC(=NOCc1ccc(OC)cc1)c1ccc(OCC(=O)NCC2CCOCC2)nc1 [Example 26, 2-((5-(1-(((4-methoxybenzyl)oxy)imino)propyl)pyridin-2-yl)oxy)-N-((tetrahydro-2H-pyran-4-yl)methyl)acetamide] | 45 | 45 | 52 | 
CCC(=NOCc1ccc(F)cc1)c1ccc(OCC(=O)NCC2CCOCC2)nc1 [Example 27, 2-((5-(1-(((4-fluorobenzyl)oxy)imino)propyl)pyridin-2-yl)oxy)-N-((tetrahydro-2H-pyran-4-yl)methyl)acetamide] | 10 | 15 | 29 | 
CCC(=NOCc1ccc(C#N)cc1)c1ccc(OCC(=O)NCC2CCOCC2)nc1 [Example 28, 2-((5-(1-(((4-cyanobenzyl)oxy)imino)propyl)pyridin-2-yl)oxy)-N-((tetrahydro-2H-pyran-4-yl)methyl)acetamide] |  |  | 23 | 
COCC(=NOCc1ccc(C(F)(F)F)cc1)c1ccc(OCC(=O)NCC2CCOCC2)cc1 [Example 30, 2-(4-(2-methoxy-1-(((4-(trifluoromethyl)benzyl)oxy)imino)ethyl)phenoxy)-N-((tetrahydro-2H-pyran-4-yl)methyl)acetamide] |  |  | 36 | 
Cc1ccc(CON=C(Cc2ccccc2)c2ccc(OCC(=O)NCC3CCOCC3)c(C)c2)cc1 [Example 32, 2-(2-methyl-4-(1-(((4-methylbenzyl)oxy)imino)-2-phenylethyl)phenoxy)-N-((tetrahydro-2H-pyran-4-yl)methyl)acetamide] | 14 | 35 | 48 | 
Cc1ccc(CON=C(Cc2ccccc2)c2ccc(OCC(=O)NCC3CCOCC3)cc2)cc1 [Example 33, 2-(4-(1-(((4-methylbenzyl)oxy)imino)-2-phenylethyl)phenoxy)-N-((tetrahydro-2H-pyran-4-yl)methyl)acetamide] | 10 | 10 | 28 | 
Cc1cc(C(Cc2ccccc2)=NOCc2ccc(Cl)cc2)ccc1OCC(=O)NCC1CCOCC1 [Example 36] |  |  |  | % Inhibition ([1]; Concentration 1 μM): 6%; % Inhibition ([1]; Concentration 10 μM): 9%; % Inhibition ([1]; Concentration 100 μM): 36%

More lines, main results first:

inhibition at 1 µM ([1]; Concentration 1 μM) [%] | inhibition at 10 µM ([1]; Concentration 10 μM) [%] | inhibition at 100 µM ([1]; Concentration 100 μM) [%] | SMILES | further results
7 | 13 | 32 | Cc1cc(C(Cc2ccccc2)=NOCc2ccc(F)cc2)ccc1OCC(=O)NCC1CCOCC1 [Example 34, 2-(4-(1-(((4-fluorobenzyl)oxy)imino)-2-phenylethyl)-2-methylphenoxy)-N-((tetrahydro-2H-pyran-4-yl)methyl)acetamide] | 
22 | 13 | 25 | O=C(COc1ccc(C(Cc2ccccc2)=NOCc2ccc(F)cc2)cc1)NCC1CCOCC1 [Example 35, 2-(4-(1-(((4-fluorobenzyl)oxy)imino)-2-phenylethyl)phenoxy)-N-((tetrahydro-2H-pyran-4-yl)methyl)acetamide] | 
20 | 26 | 28 | O=C(COc1ccc(C(Cc2ccccc2)=NOCc2ccc(Cl)cc2)cc1)NCC1CCOCC1 [Example 37, 2-(4-(1-(((4-chlorobenzyl)oxy)imino)-2-phenylethyl)phenoxy)-N-((tetrahydro-2H-pyran-4-yl)methyl)acetamide] | 
 | 19 | 38 | Cc1cc(C(Cc2ccccc2)=NOCc2ccc(OC(F)(F)F)cc2)ccc1OCC(=O)NCC1CCOCC1 [Example 38, 2-(2-methyl-4-(2-phenyl-1-(((4-(trifluoromethoxy)benzyl)oxy)imino)ethyl)phenoxy)-N-((tetrahydro-2H-pyran-4-yl)methyl)acetamide] | 
 | 33 | 42 | O=C(COc1ccc(C(Cc2ccccc2)=NOCc2ccc(OC(F)(F)F)cc2)cc1)NCC1CCOCC1 [Example 39, 2-(4-(2-phenyl-1-(((4-(trifluoromethoxy)benzyl)oxy)imino)ethyl)phenoxy)-N-((tetrahydro-2H-pyran-4-yl)methyl)acetamide] | 
 | 20 | 47 | COc1ccc(CON=C(Cc2ccccc2)c2ccc(OCC(=O)NCC3CCOCC3)c(C)c2)cc1 [Example 40, 2-(4-(1-(((4-methoxybenzyl)oxy)imino)-2-phenylethyl)-2-methylphenoxy)-N-((tetrahydro-2H-pyran-4-yl)methyl)acetamide] | 
10 |  | 19 | COc1ccc(CON=C(Cc2ccccc2)c2ccc(OCC(=O)NCC3CCOCC3)cc2)cc1 [Example 41, 2-(4-(1-(((4-methoxybenzyl)oxy)imino)-2-phenylethyl)phenoxy)-N-((tetrahydro-2H-pyran-4-yl)methyl)acetamide] | 
 | 9 | 51 | CCC(=NOCc1ccc(S(C)(=O)=O)cc1)c1ccc(OCC(=O)NCC2CCOCC2)cc1 [Example 42, 2-(4-(1-(((4-(methylsulfonyl)benzyl)oxy)imino)propyl)phenoxy)-N-((tetrahydro-2H-pyran-4-yl)methyl)acetamide] | 
 | 15 | 27 | O=C(COc1ccc(C(Cc2ccccc2)=NOCc2ccccn2)cc1)NCC1CCOCC1 [Example 43, 2-(4-(2-phenyl-1-((pyridin-2-ylmethoxy)imino)ethyl)phenoxy)-N-((tetrahydro-2H-pyran-4-yl)methyl)acetamide] | 
17 | 42 | 64 | O=C(COc1ccc2c(c1)CCCC2=NOCc1ccc(C(F)(F)F)cc1)NCC1CCOCC1 [Example 48, N-((tetrahydro-2H-pyran-4-yl)methyl)-2-((5-(((4-(trifluoromethyl)benzyl)oxy)imino)-5,6,7,8-tetrahydronaphthalen-2-yl)oxy)acetamide] | 
 | 7 | 11 | O=C(COc1ccc2c(c1)CCCC2=NOCc1ccc(Cl)cc1)NCC1CCOCC1 [Example 49, 2-((5-(((4-chlorobenzyl)oxy)imino)-5,6,7,8-tetrahydronaphthalen-2-yl)oxy)-N-((tetrahydro-2H-pyran-4-yl)methyl)acetamide] | 

Source: US8822414B2, “Heterocyclic compounds suitable for the treatment of dyslipidemia” (Cadila Healthcare Limited, priority 2010, dated 2014)
